Experimental data taken from patent US7541358B2, “1-aryl-or 1-alkylsulfonylbenzazole derivatives as 5-hydroxytryptamine-6 ligands” (Wyeth, priority 2001, dated 2009).
pKi: −log10 of the molar value.

Legend:
[1] = biological target: T1, human cloned 5-HT6 receptors (Homo sapiens, UniProt P50406); assay: 5-HT6 binding affinity ([3H]-LSD displacement, membranes of Hela cells expressing human cloned 5-HT6 receptors); settings: [3H]-LSD 3.0 nM, Hela cell membranes; for inhibition at 1 µM / % inhibition at 1 μM concentration: 1 μM test compound; for inhibition at 1 µM: read-out: % inhibition at 1 μM concentration; for pKi: 120 min at room temperature
T1 construct: expressed in transfected cells; host or cells: Hela cells
Experimental: The affinity of test compounds for the serotonin 5-HT6 receptor is evaluated in the following manner. Cultured Hela cells expressing human cloned 5-HT6 receptors are harvested and centrifuged at low speed (1,000×g) for 10.0 min to remove the culture media. The harvested cells are suspended in half volume of fresh physiological phosphate buffered saline solution and recentrifuged at the same speed. This operation is repeated. The collected cells are then homogenized in ten volumes of 50 mM Tris.HCl (pH 7.4) and 0.5 mM EDTA. The homogenate is centrifuged at 40,000×g for 30.0 min and the precipitate is collected. The obtained pellet is resuspended in 10 volumes of Tris.HCl buffer and recentrifuged at the same speed. The final pellet is suspended in a small volume of Tris.HCl buffer and the tissue protein content is determined in aliquots of 10-25 μl volumes. Bovine Serum Albumin is used as the standard in the protein determination according to the method described in Lowry et al., J. Biol. Chem., 193:265 (1951). The volume of the suspended cell membranes is adjusted to give a tissue protein concentration of 1.0 mg/ml of suspension. The prepared membrane suspension (10 times concentrated) is aliquoted in 1.0 ml volumes and stored at −70° C. until used in subsequent binding experiments.
Binding experiments are performed in a 96 well microtiter plate format, in a total volume of 200 μl. […] The test compounds are added in 20.0 μl volume.
The reaction is allowed to proceed in the dark for 120 min at room temperature, at which time, the bound ligand-receptor complex is filtered off on a 96 well unifilter with a Packard Filtermate® 196Harvester. The bound complex caught on the filter disk is allowed to air dry and the radioactivity is measured in a Packard TopCount® equipped with six photomultiplier detectors, after the addition of 40.0 μl Microscint®-20 scintillant to each shallow well. The unifilter plate is heat-sealed and counted in a PackardTopCount® with a tritium efficiency of 31.0%.
Binding in the presence of varying concentrations of test compound is expressed as a percentage of specific binding in the absence of test compound. The results are plotted a log % bound versus log concentration of test compound. […] A linear regression line of data points is plotted, from which the IC50 value is determined and the Ki value is determined based upon the following equation: Ki=IC50/(1+L/KD) where L is the concentration of the radioactive ligand used and KD is the dissociation constant of the ligand for the receptor, both expressed in nM.

T1 sequence (P50406 whole entry): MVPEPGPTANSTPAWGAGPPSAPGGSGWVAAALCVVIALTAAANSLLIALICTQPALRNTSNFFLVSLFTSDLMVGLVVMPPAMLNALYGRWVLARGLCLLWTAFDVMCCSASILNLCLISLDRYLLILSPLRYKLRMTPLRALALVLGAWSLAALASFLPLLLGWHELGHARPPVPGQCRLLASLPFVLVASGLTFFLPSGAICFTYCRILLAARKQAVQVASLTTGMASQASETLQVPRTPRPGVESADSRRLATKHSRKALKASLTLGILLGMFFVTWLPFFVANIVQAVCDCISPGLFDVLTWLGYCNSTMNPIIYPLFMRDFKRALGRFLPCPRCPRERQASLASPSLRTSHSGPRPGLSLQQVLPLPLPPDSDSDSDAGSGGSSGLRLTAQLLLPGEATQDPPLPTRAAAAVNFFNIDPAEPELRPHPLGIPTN

| Compound | inhibition at 1 µM [1] [%] | melting point [°C] | pKi [1] | % inhibition at 1 μM concentration [1] [% @ 1 μM*] |
| --- | --- | --- | --- | --- |
| O=S(=O)(c1ccc(Cl)s1)n1ccc2cc(OCCN3CCCCC3)ccc21 [Example 11, 1-[(5-chlorothien-2-yl)sulfonyl]-5-[2-(piperidin-1-yl)ethoxy]-1H-indole] | 51 | 222 to 224 |  |  |
| O=S(=O)(c1cc(Cl)c(Cl)s1)n1ccc2cc(OCCN3CCCCC3)ccc21 [Example 12, 1-[(4,5-dichlorothien-2-yl)sulfonyl]-5-[2-(piperidin-1-yl)ethoxy]-1H-indole] | 65 | 222 to 224 |  |  |
| O=S(=O)(c1c(Cl)nc2sccn12)n1ccc2cc(OCCN3CCCCC3)ccc21 [Example 13, 1-[(6-chloroimidazo[2,1-b][1,3]thiazol-5-yl)sulfonyl]-5-[2-(piperidin-1-yl)ethoxy]-1H-indole] |  | 60 | 7.66 |  |
| Cc1c(S(=O)(=O)n2ccc3cc(OCCN4CCCCC4)ccc32)sc2ccc(Cl)cc12 [Example 14, 1-[(5-chloro-3-methyl-1-benzothien-2-yl)sulfonyl]-5-[2-(piperidin-1-yl)ethoxy]-1H-indole] | 65 |  |  |  |
| Cc1c(S(=O)(=O)n2ccc3c(OCCN4CCCCC4)cccc32)sc2ccc(Cl)cc12 [Example 15, 1-[(5-chloro-3-methyl-1-benzothien-2-yl)sulfonyl]-4-[2-(piperidin-1-yl)ethoxy]-1H-indole] |  | 217 to 219 | 7.15 |  |
| O=[N+]([O-])c1ccc(S(=O)(=O)n2ncc3c(OCCN4CCCCC4)cccc32)cc1 [Example 20, 1-[(4-nitrophenyl)sulfonyl]-4-[2-(l-piperidinyl)ethoxy]1H-indazole] |  |  |  | 76 |
| O=S(=O)(c1c(Cl)nc2sccn12)n1ncc2c(OCCN3CCCCC3)cccc21 [Example 22, 1-[(6-chloroimidazo[2,1-b][1,3]thiazol-5-yl)sulfonyl]-4-[2-(piperidin-1-yl)ethoxy]-1H-indazole] |  | 88 to 90 | 8.70 |  |
| O=S(=O)(c1cc(Cl)c(Cl)s1)n1ncc2c(OCCN3CCCCC3)cccc21 [Example 23, 1-[(4,5-dichlorothien-2-yl)sulfonyl]-4-[2-(piperidin-1-yl)ethoxy]-1H-indazole] |  | 214 to 216 | 7.74 |  |
| O=S(=O)(c1ccc(Cl)s1)n1ncc2c(OCCN3CCCCC3)cccc21 [Example 24, 1-[(5-chlorothien-2-yl)sulfonyl]-4-[2-(piperidin-1-yl)ethoxy]-1H-indazole] |  | 187 to 189 | 7.92 |  |
| O=S(=O)(c1cccs1)n1ncc2c(OCCN3CCCCC3)cccc21 [Example 25, 4-[2-(piperidin-1-yl)ethoxy]-1-(thien-2-ylsulfonyl)-1H-indazole] |  | 172 to 175 | 8.10 |  |
| Cc1c(S(=O)(=O)n2ncc3c(OCCN4CCCCC4)cccc32)sc2ccc(Cl)cc12 [Example 26, 1-[(5-chloro-3-methyl-1-benzothien-2-yl)sulfonyl]-4-[2-(piperidin-1-yl)ethoxy]-1H-indazole] |  | 216 to 218 | 7.28 |  |
| N,N-Bis(3-methoxybenzyl)-N-(2-{[1-(phenylsulfonyl)-1H-indol-4-yl]oxy}ethylamine [Example 7a] |  |  |  | 94 |
| N-(3-methoxybenzyl)-N-(2-{[1-(phenylsulfonyl)-1H-indol-4-yl]oxy}ethylamine hydrochloride [Example 7b] |  |  |  | 95 |
